The values that follow are results of earlier work, collected in US20240254438A1, “MULTI-REGIONAL HUMAN NEURAL CIRCUITS IN ASSEMBLOIDS DERIVED FROM PLURIPOTENT STEM CELLS” (The Board of Trustees of the Leland Stanford Junior …, priority 2021, published 2024).

Each structure is given as a SMILES string.

Data set [1] addresses element-binding protein (CBP) (Homo sapiens, UniProt Q92793). As to conditions: binds to element-binding protein (CBP).
The subject of data set [2] is Wnt processing and secretion. As to conditions: cell-free assay.
Data set [3] relates to PORCN.
In data set [4] the target is Smo heptahelical domain (Homo sapiens, UniProt Q99835).
The test system of data set [5] is Wnt signaling. As to conditions: TM3 cells.
The subject of data set [6] is PORCN. The settings on record: HEK293 cells, Wnt3A-mediated TCF luciferase.
Data set [7] concerns the target T1, TNKS2 (Homo sapiens, UniProt Q9H2K2).
T1 sequence (Q9H2K2 1-1166): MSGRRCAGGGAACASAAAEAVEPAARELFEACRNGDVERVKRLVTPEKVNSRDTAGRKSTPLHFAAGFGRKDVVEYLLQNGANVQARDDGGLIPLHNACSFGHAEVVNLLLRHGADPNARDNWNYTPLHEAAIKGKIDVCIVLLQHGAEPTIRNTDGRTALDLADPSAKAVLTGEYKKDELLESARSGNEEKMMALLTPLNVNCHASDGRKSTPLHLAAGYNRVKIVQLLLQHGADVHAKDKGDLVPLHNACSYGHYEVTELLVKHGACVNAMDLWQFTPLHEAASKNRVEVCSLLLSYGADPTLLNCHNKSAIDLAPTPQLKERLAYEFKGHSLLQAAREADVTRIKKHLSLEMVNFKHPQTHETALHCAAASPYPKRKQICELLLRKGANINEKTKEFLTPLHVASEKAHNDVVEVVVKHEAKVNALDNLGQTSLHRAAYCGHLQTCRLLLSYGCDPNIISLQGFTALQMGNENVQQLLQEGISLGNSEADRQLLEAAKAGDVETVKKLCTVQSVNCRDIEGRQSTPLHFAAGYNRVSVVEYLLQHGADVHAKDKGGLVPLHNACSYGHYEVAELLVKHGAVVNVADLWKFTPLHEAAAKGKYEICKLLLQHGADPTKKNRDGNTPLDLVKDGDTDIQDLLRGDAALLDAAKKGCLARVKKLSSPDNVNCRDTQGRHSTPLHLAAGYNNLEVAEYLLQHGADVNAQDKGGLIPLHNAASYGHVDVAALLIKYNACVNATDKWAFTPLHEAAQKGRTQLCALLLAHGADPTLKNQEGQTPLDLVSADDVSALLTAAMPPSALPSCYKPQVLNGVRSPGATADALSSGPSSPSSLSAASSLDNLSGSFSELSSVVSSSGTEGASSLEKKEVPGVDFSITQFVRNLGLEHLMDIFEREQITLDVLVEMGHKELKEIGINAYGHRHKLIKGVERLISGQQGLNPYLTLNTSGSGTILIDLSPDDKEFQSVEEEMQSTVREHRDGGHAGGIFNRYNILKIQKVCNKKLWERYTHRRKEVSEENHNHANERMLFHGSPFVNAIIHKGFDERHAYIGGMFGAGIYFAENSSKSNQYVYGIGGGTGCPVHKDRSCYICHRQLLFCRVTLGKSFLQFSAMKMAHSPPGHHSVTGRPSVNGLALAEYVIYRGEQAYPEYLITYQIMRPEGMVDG

Smo heptahelical domain, sequence (Q99835 28-787): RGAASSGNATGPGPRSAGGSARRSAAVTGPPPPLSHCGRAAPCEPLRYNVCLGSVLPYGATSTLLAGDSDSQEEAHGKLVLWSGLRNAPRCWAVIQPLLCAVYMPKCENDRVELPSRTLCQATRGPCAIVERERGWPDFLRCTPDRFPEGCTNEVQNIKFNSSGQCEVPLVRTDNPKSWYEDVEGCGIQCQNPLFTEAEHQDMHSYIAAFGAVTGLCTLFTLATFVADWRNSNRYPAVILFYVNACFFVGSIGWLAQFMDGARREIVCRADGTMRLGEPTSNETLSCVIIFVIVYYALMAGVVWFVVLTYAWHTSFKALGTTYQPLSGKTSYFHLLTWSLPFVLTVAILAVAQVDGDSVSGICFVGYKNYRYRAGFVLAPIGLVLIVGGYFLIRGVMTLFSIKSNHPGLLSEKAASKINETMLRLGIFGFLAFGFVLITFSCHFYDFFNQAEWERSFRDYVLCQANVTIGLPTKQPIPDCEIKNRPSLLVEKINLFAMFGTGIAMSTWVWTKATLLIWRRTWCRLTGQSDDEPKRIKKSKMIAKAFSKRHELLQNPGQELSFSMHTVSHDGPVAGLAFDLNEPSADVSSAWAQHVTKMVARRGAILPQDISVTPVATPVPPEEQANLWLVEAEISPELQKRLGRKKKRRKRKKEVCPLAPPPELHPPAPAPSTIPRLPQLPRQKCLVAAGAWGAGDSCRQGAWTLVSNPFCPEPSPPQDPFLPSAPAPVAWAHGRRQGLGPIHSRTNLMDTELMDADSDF
element-binding protein (CBP), sequence (Q92793 whole entry): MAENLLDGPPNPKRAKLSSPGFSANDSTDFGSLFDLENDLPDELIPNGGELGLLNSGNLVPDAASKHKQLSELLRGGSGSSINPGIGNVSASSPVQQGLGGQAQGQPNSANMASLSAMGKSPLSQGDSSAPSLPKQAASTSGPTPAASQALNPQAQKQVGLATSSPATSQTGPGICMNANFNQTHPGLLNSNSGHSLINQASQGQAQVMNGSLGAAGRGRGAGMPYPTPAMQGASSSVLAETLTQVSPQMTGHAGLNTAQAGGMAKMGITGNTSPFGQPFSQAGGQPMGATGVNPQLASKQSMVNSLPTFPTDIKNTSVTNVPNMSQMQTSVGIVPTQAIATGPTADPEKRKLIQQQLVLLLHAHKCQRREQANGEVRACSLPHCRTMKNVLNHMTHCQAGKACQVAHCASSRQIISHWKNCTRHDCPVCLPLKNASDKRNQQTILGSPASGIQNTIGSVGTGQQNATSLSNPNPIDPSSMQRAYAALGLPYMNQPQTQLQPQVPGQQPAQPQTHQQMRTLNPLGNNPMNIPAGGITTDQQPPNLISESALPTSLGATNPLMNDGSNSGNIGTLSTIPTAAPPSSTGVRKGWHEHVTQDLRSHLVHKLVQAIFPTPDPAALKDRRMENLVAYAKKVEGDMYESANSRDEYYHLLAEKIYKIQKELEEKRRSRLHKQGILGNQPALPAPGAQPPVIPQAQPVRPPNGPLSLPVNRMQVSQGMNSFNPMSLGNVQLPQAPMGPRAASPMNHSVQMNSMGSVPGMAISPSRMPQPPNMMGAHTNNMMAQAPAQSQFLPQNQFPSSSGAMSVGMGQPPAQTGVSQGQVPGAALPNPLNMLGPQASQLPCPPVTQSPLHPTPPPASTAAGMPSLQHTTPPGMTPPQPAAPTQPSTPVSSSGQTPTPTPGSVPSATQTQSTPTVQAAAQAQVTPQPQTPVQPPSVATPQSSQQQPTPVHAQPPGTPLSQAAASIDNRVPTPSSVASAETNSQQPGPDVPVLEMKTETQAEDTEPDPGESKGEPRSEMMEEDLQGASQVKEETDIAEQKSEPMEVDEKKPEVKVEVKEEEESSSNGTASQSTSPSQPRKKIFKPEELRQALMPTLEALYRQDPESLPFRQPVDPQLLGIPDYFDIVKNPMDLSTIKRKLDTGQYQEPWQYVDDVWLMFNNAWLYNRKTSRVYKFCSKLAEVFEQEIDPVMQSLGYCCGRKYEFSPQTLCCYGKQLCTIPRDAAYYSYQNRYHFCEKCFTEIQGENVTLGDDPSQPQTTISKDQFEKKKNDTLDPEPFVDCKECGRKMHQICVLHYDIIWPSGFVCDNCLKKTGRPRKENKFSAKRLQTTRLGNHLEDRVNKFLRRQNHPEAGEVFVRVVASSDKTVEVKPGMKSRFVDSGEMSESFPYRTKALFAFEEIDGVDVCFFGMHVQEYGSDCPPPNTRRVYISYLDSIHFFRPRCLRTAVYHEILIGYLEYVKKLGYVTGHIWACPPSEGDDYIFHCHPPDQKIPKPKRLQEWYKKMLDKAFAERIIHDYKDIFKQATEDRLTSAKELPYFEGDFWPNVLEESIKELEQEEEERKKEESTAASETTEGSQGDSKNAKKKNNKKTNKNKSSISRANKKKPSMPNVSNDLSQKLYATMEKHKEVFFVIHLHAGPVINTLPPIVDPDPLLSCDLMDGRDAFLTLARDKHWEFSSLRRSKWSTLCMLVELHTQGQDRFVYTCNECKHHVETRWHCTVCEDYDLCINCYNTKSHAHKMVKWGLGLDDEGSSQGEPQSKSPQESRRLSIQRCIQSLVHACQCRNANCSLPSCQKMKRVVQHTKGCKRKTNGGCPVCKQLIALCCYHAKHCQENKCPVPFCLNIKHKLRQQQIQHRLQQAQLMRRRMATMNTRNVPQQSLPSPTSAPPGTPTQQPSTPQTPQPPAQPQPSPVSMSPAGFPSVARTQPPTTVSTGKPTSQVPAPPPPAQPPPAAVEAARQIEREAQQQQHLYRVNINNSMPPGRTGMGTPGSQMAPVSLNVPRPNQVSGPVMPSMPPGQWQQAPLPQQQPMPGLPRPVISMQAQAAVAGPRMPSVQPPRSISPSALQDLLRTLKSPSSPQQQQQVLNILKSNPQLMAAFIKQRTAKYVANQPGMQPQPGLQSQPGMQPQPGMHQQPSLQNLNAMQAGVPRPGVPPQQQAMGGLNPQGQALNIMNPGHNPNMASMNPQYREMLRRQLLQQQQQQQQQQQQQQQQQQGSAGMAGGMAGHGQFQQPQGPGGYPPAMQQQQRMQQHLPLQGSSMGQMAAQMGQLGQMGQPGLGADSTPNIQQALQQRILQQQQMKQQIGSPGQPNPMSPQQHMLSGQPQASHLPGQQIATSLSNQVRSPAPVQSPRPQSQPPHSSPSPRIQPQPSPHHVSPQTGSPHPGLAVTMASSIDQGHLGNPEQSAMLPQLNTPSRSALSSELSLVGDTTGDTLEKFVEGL

Consider `O=C1[C@H](Cc2ccc(O)cc2)N2C(=O)CCN(C(=O)NCc3ccccc3)[C@H]2CN1Cc1cccc2ccccc12` [ICG-001], for which the IC50 (commonly the concentration that gives 50% inhibition) in data set [1] is 3000 nM. Take `Cc1ccc2nc(NC(=O)CSc3nc4c(c(=O)n3-c3ccccc3)SCC4)sc2c1` [IWP-2]: the IC50 in data set [2] was 27 nM. As to `O=C(CSc1nc2c(c(=O)n1-c1ccccc1)SCC2)Nc1ccc(-c2ccccc2)cn1` [IWP-L6], the EC50 (as a rule, the concentration giving half of the maximal effect) in data set [3] is 0.5 nM. As to `CNC1CCC(N(Cc2cccc(-c3ccncc3)c2)C(=O)c2sc3ccccc3c2Cl)CC1` (stereo not shown) [SAG], the Kd (usually the free concentration of one partner at which half of the binding sites on the other are occupied at equilibrium, for simple one-to-one binding) in data set [4] is 59 nM.

As for `Cc1cc(-c2ncc(CC(=O)Nc3ccc(-c4cnccn4)cn3)cc2C)ccn1` [LGK-974], the 50% inhibitory concentration (IC50) in data set [5] is 0.4 nM.

In the case of `Cc1cc(-c2ccc(CC(=O)Nc3ccc(-c4cccnc4)cc3)cc2)ccn1` [Wnt-C59], the half-inhibitory concentration (IC50) in data set [6] is 0.074 nM. As to `COc1ccc(-n2c(SCCCN3C(=O)c4cccc5cccc(c45)C3=O)nnc2-c2ccncc2)cc1` [WIKI4], in data set [7], the half-maximal inhibitory concentration (IC50) was 15 nM.
